Measured values: a melting point compilation (Tetko et al.; mined from patent text by program, amines drawn as free bases though some values may be those of a salt)

Q: With COc1cc(Cl)cc2nc(S(=O)(=O)Nc3c(Cl)cccc3Cl)nn12 as the compound, how does the melting point read?
A: Its melting point is 232 to 234 °C.

Q: With CCOC(=O)C(C)Oc1ccc2c(c1)N(C)C(=O)N(c1ccc(Cl)cc1)S2(=O)=O (stereo unspecified) as the compound, how does the melting point read?
A: The melting point was 111 to 112 °C.

Q: For O=S(=O)(NCC(O)(Cn1cncn1)c1ccc(Cl)cc1Cl)c1cc(Cl)ccc1Cl (stereo unspecified), which melting point is on record?
A: Its melting point is 173 to 174 °C.

Q: Which melting point does the source give for Cc1ccc(S(=O)(=O)n2ccc(-c3ccc(F)cc3)c2-c2ccc(S(C)(=O)=O)cc2)cc1 here?
A: The melting point was 228 to 229 °C.

Q: Which melting point does the source give for O=c1c2c(nc3ccc(-c4nnn[nH]4)cn13)CSC2 here?
A: The melting point was 285 °C.

Q: Which melting point does the source give for O=C1NC(=O)C(Cc2ccc(OCCn3ccc4ccccc43)cc2)S1 (stereo unspecified) here?
A: Its melting point is 42.3 to 44.6 °C.

Q: For COC(=O)C1CCc2c(oc3cccc(Cl)c23)C1 (stereo unspecified), which melting point is on record?
A: The melting point was 99 to 102 °C.

Q: With CCn1c(=S)c2[nH]c(C(C)C)nc2n(Cc2ccc(OC)c(OC3CCCC3)c2)c1=O as the compound, how does the melting point read?
A: Its melting point is 176 to 177 °C.

Q: Which melting point does the source give for CC1(c2ccccc2)CC(=O)N(c2ccncc2)C1=O (stereo unspecified) here?
A: Its melting point is 90 to 92 °C.

Q: Which melting point does the source give for COc1ccc(-c2ccc3c(c2)C=C(C(=O)Nc2ccc(CN(C)C4CCC(=O)CC4)cc2)CCS3(=O)=O)cc1 here?
A: The melting point was 214 to 218 °C.

Q: With CC(=O)SCC(Cc1ccccc1)NC(=O)N1CCN(C)CC1 (single isomer, unassigned; (+)) as the compound, how does the melting point read?
A: Its melting point is 78 °C.

Q: With COc1ccc(CC(=O)O)cc1OCCc1ccccc1 as the compound, how does the melting point read?
A: Its melting point is 88 to 89 °C.

Q: With CCOC(=O)C=C(C)C=CC=C(C)C=Cc1c(C)c(C)c(OC)c(C)c1Cl as the compound, how does the melting point read?
A: The melting point was 90 °C.

Q: For Fc1cc(CC2(Cc3ccncc3)c3ccccc3Oc3ccccc32)ccn1, which melting point is on record?
A: The melting point was 180 to 181 °C.

Q: With CC(=O)NC(=Cc1ccccc1)C1=NC(=Cc2ccc(C)s2)C(=O)O1 as the compound, how does the melting point read?
A: The melting point was 193 to 194 °C.

Q: With COC(=O)c1cccc(Oc2nn(Cc3ccccc3)c3ccccc23)n1 as the compound, how does the melting point read?
A: The melting point was 92 to 94 °C.

Q: Which melting point does the source give for COc1ccc2[nH]cc(-c3cc4c(OC)ncnc4n3S(=O)(=O)c3ccc(C)cc3)c2c1 here?
A: Its melting point is 131 °C.

Q: With CCOC(=O)C1=C(C)NC(C(OCC)OCC)=C(C(=O)OCC)C1c1ccco1 (stereo unspecified) as the compound, how does the melting point read?
A: Its melting point is 59 to 60 °C.

Q: For COc1ccc(-c2cncc3cccc([N+](=O)[O-])c23)c(O)c1OC, which melting point is on record?
A: The melting point was 170 to 174 °C.

Q: For CCOC(=O)c1nnn(-c2ccccc2)c1Cl, which melting point is on record?
A: Its melting point is 80 to 81 °C.

Q: For Cc1cc(C)c2cccc(OCc3c(Cl)ccc(S(=O)(=O)N4CCC[C@H]4C(=O)N4CCN(S(=O)(=O)c5ccc(C#N)cc5)CC4)c3Cl)c2n1, which melting point is on record?
A: Its melting point is 156 to 158 °C.

Q: Which melting point does the source give for CS(=O)(=O)OCCNc1ccc(C(F)(F)F)cc1[N+](=O)[O-] here?
A: Its melting point is 68 to 70 °C.

Q: Which melting point does the source give for O=C(Nc1nc(C(Cl)(Cl)Cl)ns1)c1ccc(Cl)cc1Cl here?
A: Its melting point is 136 °C.

Q: Which melting point does the source give for Nc1c(NCCCN(Cc2ccccc2)c2ccccn2)c(=O)c1=O here?
A: Its melting point is 228 to 231 °C.

Q: For Cc1cc(C)c(C(=O)P(=S)(C(=O)c2c(C)cc(C)cc2C)c2ccccc2)c(C)c1, which melting point is on record?
A: Its melting point is 123 °C.

Q: Which melting point does the source give for CCCCCCON=C(C(=O)OCC)c1csc(N)n1 here?
A: Its melting point is 77 to 78 °C.

Q: Which melting point does the source give for COC[C@H](O)CNc1ccc2cc(OCc3ccccc3)ccc2c1 here?
A: The melting point was 105 to 106 °C.

Q: Which melting point does the source give for O=S(=O)(Nc1cccc2c(Cl)c[nH]c12)c1ccc(CCCn2ccnc2)cc1 here?
A: Its melting point is 86 to 90 °C.

Q: Which melting point does the source give for CC(=S)NC[C@H]1CN(c2ccc(C3CCS(=O)(=O)N(C)C3)c(F)c2)C(=O)O1 (stereo partly specified) here?
A: The melting point was 95 to 98 °C.

Q: Which melting point does the source give for Cc1ccc(S(=O)(=O)ON=C(c2cccc([N+](=O)[O-])c2)n2nc(C)cc2N)cc1 here?
A: Its melting point is 156 to 158 °C.

Q: Which melting point does the source give for Cn1nnnc1-c1cn(C)c2cc(OC(F)F)ccc2c1=O here?
A: Its melting point is 225 to 228 °C.

Q: Which melting point does the source give for O=c1[nH]c(-c2ccccc2)c(-c2ccccc2S(=O)(=O)NCCCBr)o1 here?
A: Its melting point is 232 to 235 °C.

Q: For Cc1nc2c(C)cccn2c(=O)c1CCN1CC=C(c2c[nH]c3ccc(F)cc23)CC1, which melting point is on record?
A: Its melting point is 229 to 230 °C.

Q: For O=C(O)c1ccc(O)c(OCc2ccccc2)c1, which melting point is on record?
A: Its melting point is 167 to 171 °C.

Q: Which melting point does the source give for O=C(/C=C/c1ccc2ccccc2c1)Nc1cc(Cl)ccc1NS(=O)(=O)c1ccccc1 here?
A: The melting point was 220 to 223 °C.

Q: With COCCNC(=O)c1ccc(SC)c([N+](=O)[O-])c1 as the compound, how does the melting point read?
A: Its melting point is 117 to 118 °C.

Q: With COc1ccc2[nH]c3c(c2c1)CCC(C(=O)O)C3 (stereo unspecified) as the compound, how does the melting point read?
A: The melting point was 226 to 228 °C.

Q: For NCC1Cc2cc(F)cc(-c3cccnc3)c2O1 (stereo unspecified), which melting point is on record?
A: Its melting point is 88 to 90 °C.

Q: With Cc1ccncc1Cn1nnnc1-c1cc(Cl)ccc1Cl as the compound, how does the melting point read?
A: Its melting point is 169 to 171 °C.

Q: With CCn1c(C(C#N)c2cc(C)cc(C#N)c2)c(C(C)C)c(=O)n(COC)c1=O (stereo unspecified) as the compound, how does the melting point read?
A: The melting point was 202 to 205 °C.

Q: Which melting point does the source give for CCc1nc2c(N)nc3cc(CCCNC(=O)NC(C)C)ccc3c2n1CC1CCOCC1 here?
A: Its melting point is 213 to 216 °C.

Q: With Cc1csc2nc3cc(F)ccc3n12 as the compound, how does the melting point read?
A: The melting point was 148 °C.

Q: Which melting point does the source give for CN1C(=O)CCC2(C)c3ccc(CC(=O)O)cc3CCC12 (stereo unspecified) here?
A: Its melting point is 200 to 202 °C.

Q: For Cc1ccc(-c2cc(-c3ccc(Cl)cc3)n[nH]2)cc1, which melting point is on record?
A: The melting point was 228 °C.

Q: Which melting point does the source give for CCOC(=O)c1cn(CC)c2sc(C=O)cc2c1=O here?
A: Its melting point is 205 °C.

Q: Which melting point does the source give for COc1ccc2c(c1)N(C1=CCCN1C1=NCCC1)c1ccccc1S2 here?
A: Its melting point is 151 to 153 °C.

Q: With COC(=O)CC(C#Cc1ccc(C(=O)O)cc1)c1ccc(OC)c(OC2CCCC2)c1 (racemic) as the compound, how does the melting point read?
A: Its melting point is 109 to 110 °C.

Q: With CC(C)CN/C(=C1/Sc2ccccc2C1=O)c1ccccc1 as the compound, how does the melting point read?
A: The melting point was 125 to 126 °C.

Q: For CCOC(=O)C1=C(C)NC(CN2C(=O)c3ccccc3C2=O)=C(C(=O)OCC)C1c1ccccc1 (stereo unspecified), which melting point is on record?
A: The melting point was 169 to 170 °C.

Q: Which melting point does the source give for Nc1c(Cl)cc(C(O)CNCCCCCCOCCCc2cncc(CC(=O)O)c2)cc1Cl (stereo unspecified) here?
A: Its melting point is 191 to 192 °C.

Q: Which melting point does the source give for N#CCOc1cc2ccccc2cc1I here?
A: The melting point was 105 to 107 °C.

Q: For COc1cc(NC(=S)Nc2ccccc2)ccn1, which melting point is on record?
A: Its melting point is 138 to 141 °C.

Q: For CS(=O)(=O)c1ccc(-c2[nH]c3ccc(Cl)cc3c2-c2cccc(Cl)c2)cc1, which melting point is on record?
A: Its melting point is 254 to 257 °C.

Q: With OC1CSC(Oc2cccnc2-c2cccnc2)C(O)C1O (stereo unspecified) as the compound, how does the melting point read?
A: The melting point was 80 °C.

Q: For CC(C)c1nc(-c2ccccc2)nc(-c2ccc(F)cc2)c1C=O, which melting point is on record?
A: Its melting point is 127 to 129 °C.

Q: For COc1ccc(C2CCN(CCC3CCCCc4ccccc43)CC2)cc1OC (stereo unspecified), which melting point is on record?
A: The melting point was 127 to 128 °C.

Q: Which melting point does the source give for COc1cc2c(cc1O)CC1c3c(cc(OC)c(O)c3-2)CCN1CC1CC1 (single isomer, unassigned; (+)) here?
A: Its melting point is 80 to 84 °C.

Q: Which melting point does the source give for CCCCOc1cc(CCC(=O)O)n(Cc2ccc(C(F)(F)F)cc2Cl)n1 here?
A: The melting point was 125 to 126 °C.

Q: Which melting point does the source give for Cc1cc(Oc2ncc(C(F)(F)F)cc2Cl)ccc1N=C=O here?
A: Its melting point is 154 to 161 °C.

Q: With CN(C)c1cccc(-c2ccc3nnn(Cc4ccc5ncccc5c4)c3n2)c1 as the compound, how does the melting point read?
A: Its melting point is 124 to 126 °C.

Q: For CCOC(=O)c1oc2cc(-c3ccc(CO)cc3)ccc2c1C, which melting point is on record?
A: The melting point was 135 to 136 °C.

Q: Which melting point does the source give for CCC(=O)N=C(NC(=O)OC)Nc1cc(Oc2ccccc2)ccc1NC(C)=O here?
A: Its melting point is 161 to 163 °C.

Q: For COCc1n[nH]c2c1c(=O)n(-c1ccccc1)c1ncccc21, which melting point is on record?
A: Its melting point is 263 to 265 °C.

Q: Which melting point does the source give for CC(=O)SCC(Cc1ccccc1)C(=O)Nc1ccc(N(C)C)c(C(=O)O)c1 (stereo unspecified) here?
A: The melting point was 168 to 169 °C.

Q: With COC(=O)COc1ccc(NC(=O)CCCCCOCc2ccccc2)cc1 as the compound, how does the melting point read?
A: Its melting point is 64.6 to 67 °C.

Q: Which melting point does the source give for N#CCc1cccc2c(-c3ccc(F)cc3)onc12 here?
A: The melting point was 158 to 160 °C.

Q: With COC(=O)Cc1ccc(OCc2ccc3ccccc3n2)c(Cl)c1 as the compound, how does the melting point read?
A: The melting point was 79 °C.

Q: Which melting point does the source give for CCCc1c(O)ccc(C(=O)OCc2ccccc2)c1O here?
A: Its melting point is 86 to 88 °C.

Q: For O=C(O)CCCc1cc2nc(Cl)ccc2n1S(=O)(=O)c1ccc(Cl)cc1, which melting point is on record?
A: Its melting point is 174 °C.

Q: For CC(=NO)C1=CCC2C3CCC4CC=CCC4(C)C3C(=O)CC12C (stereo unspecified), which melting point is on record?
A: The melting point was 168 to 182 °C.

Q: With CCCCc1c(-c2cnccn2)ssc1=S as the compound, how does the melting point read?
A: The melting point was 72 °C.
